In paper PMC3330251 (Journal of Medicinal Chemistry, 2012):

Tests used:
[1] = human liver microsomes; cited from earlier work
[2] = system: potassium ion channel coded by hERG; conditions: compound concentration as high as 300 µM; cited from earlier work
[3] = cited from earlier work
[4] = system: L. donovani (axenic amastigote stage, MHOM-ET-67/L82); conditions: relative to 1d
[5] = system: P. falciparum (erythrocytic stage, K1 strain); conditions: relative to the standard (chloroquine)

CCc1ccc(C(=O)NC(=O)c2ccccc2O)cc1 [Compound 1a, N-(4-Ethylbenzoyl)-2-hydroxybenzamide]
intrinsic clearance / metabolism rate in HLM [1]: 282 µL/min/mg proteins
hERG inhibition [2]: not inhibited
protein binding in human plasma [3]: 99.9%

O=C(NC(=O)c1ccccc1O)c1ccc(C(F)(F)F)cc1 [Compound 1g, 2-Hydroxy-N-(4-(trifluoromethyl)benzoyl)benzamide]
times less potent than 1d against L. donovani [4]: 4 times

O=C(NC(=O)c1ccccc1O)c1ccc2ccccc2c1 [Compound 1t, N-(2-Hydroxybenzoyl)-2-naphthamide]
fold less active than the standard against malaria parasites [5]: 2 fold

OC(Cn1cncn1)(Cn1cncn1)c1ccc(F)cc1F [fluconazole, reference compound]
protein binding in human plasma [3]: 23.7%
